Measured values as given in patent US20240366567A1, “PHARMACEUTICAL COMBINATIONS COMPRISING A KRAS G12C INHIBITOR AND USES THEREOF FOR THE TREATMENT OF CANCERS” (NOVARTIS AG, priority 2021, published 2024).

Key:
[1] = system: KRAS G12C and CDKN2A-mutated LU99 xenograft; assay: LU99 xenograft, Compound A with ribociclib (Example 7); format: in vivo; conditions: LU99 xenograft in mice
[2] = system: KRAS G12C, PIK3CA and CDKN2A-mutated LU99 xenograft; assay: LU99 xenograft, single agent and double, triple, quadruple combinations (Example 8); format: in vivo, mice; conditions: 7.5 mg/kg daily

CN(C)C(=O)c1cc2cnc(Nc3ccc(N4CCNCC4)cn3)nc2n1C1CCCC1 [ribociclib, reference compound]
effect on tumor growth [1]: did not have any effect on tumor growth

C[C@@H]1OCC2(CCN(c3cnc(Sc4ccnc(N)c4Cl)c(N)n3)CC2)[C@@H]1N [TNO155, (3S,4S)-8-(6-amino-5-((2-amino-3-chloropyridin-4-yl)thio)pyrazin-2-yl)-3-methyl-2-oxa-8-azaspiro[4.5]decan-4-amine, reference compound]
effect on tumor growth compared to the vehicle group [2]: did not have any effect on tumor growth
